Earlier results in patent US20040097484A1 (priority 2002, published 2004).

Settings: in vivo

- effective plasma concentration duration (sufficient elimination half-life): at least 4 hours
SMILES: COc1ccc2c3c1O[C@H]1C[C@@H](O)C=C[C@@]31CCN(C)C2 [galantamine, 4a, 5,9, 10, 11, 12-hexahydro-3-methoxy-11-methyl-6H-benzofuro [3a, 3,2-e][2] benzazepin-6-ol]
